# In patent US11370798B2 (Vertex Pharmaceuticals Incorporated, priority 2012, dated 2022):
# Tested on: HCT116 colorectal cancer cells
# Assay: Cisplatin sensitization assay (96 h cell viability MTS);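 also: Test-compound concentration that lowers the Cisplatin IC50 by a set fold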
# Assay type: cell-based
# Conditions: compound and Cisplatin added simultaneously, Cisplatin sensitization value
# Outline: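 Compound and cisplatin added together as a full matrix of 2-fold serial dilutions from a top final concentration of 10 μM; cells incubated 96 h at 37° C, 5% CO2. Viability then read by MTS after 1 h further incubation; sensitization value reported in μM bins.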
row,Compound,Cisplatin Sensitization Assay
1,"COc1cncc(NC(=O)c2c(N)nn3cc(F)cnc23)c1-c1cccnc1 [I-C-82, 2-amino-6-fluoro-N-(5′-methoxy-[3,4′-bipyridin]-3′-yl)pyrazolo[1,5-a]pyrimidine-3-carboxamide]",+++ (Cisplatin sensitization value of <0.02 μM)
2,"Nc1nn2cc(F)cnc2c1C(=O)Nc1cnccc1-c1ccc(C(=O)N2CCN(C3COC3)CC2)nc1 [I-C-52, 2-amino-6-fluoro-N-(6-(4-(oxetan-3-yl)piperazine-1-carbonyl)-[3,4′-bipyridin]-3′-yl)pyrazolo[1,5-a]pyrimidine-3-carboxamide]",++ (Cisplatin sensitization value>0.02 μM but <0.2 μM)
3,"Nc1nn2cc(F)cnc2c1C(=O)Nc1cncc(F)c1N1CCN(C(=O)C2COC2)CC1 [I-N-278, 2-amino-6-fluoro-N-(5-fluoro-4-(4-(oxetane-3-carbonyl)piperazin-1-yl)pyridin-3-yl)pyrazolo[1,5-a]pyrimidine-3-carboxamide]",+++ (Cisplatin sensitization value of <0.02 μM)
4,"Nc1nn2cc(F)cnc2c1C(=O)Nc1cncc(F)c1N1CCC(C(=O)N2CC(N3CCCC3)C2)CC1 [I-G-43, 2-amino-6-fluoro-N-(5-fluoro-4-(4-(3-(pyrrolidin-1-yl)azetidine-1-carbonyl)piperidin-1-yl)pyridin-3-yl)pyrazolo[1,5-a]pyrimidine-3-carboxamide]",+++ (Cisplatin sensitization value of <0.02 μM)
5,"Nc1nn2cc(F)cnc2c1C(=O)Nc1cncc(Cl)c1N1CCCC1 [I-N-281, 2-amino-N-(5-chloro-4-(pyrrolidin-1-yl)pyridin-3-yl)-6-fluoropyrazolo[1,5-a]pyrimidine-3-carboxamide]",+++ (Cisplatin sensitization value of <0.02 μM)
6,"Nc1nn2cc(F)cnc2c1C(=O)Nc1cnccc1N1CCC(S(=O)(=O)N2CCN3CCC2CC3)CC1 [I-N-196, N-(4-(4-(1,4-diazabicyclo[3.2.2]nonan-4-ylsulfonyl)piperidin-1-yl)pyridin-3-yl)-2-amino-6-fluoropyrazolo[1,5-a]pyrimidine-3-carboxamide]",+++ (Cisplatin sensitization value of <0.02 μM)
7,"N#CCc1cnc2c(C(=O)Nc3cnccc3O[C@@H]3CCNC3)c(N)nn2c1 [I-O-87, (R)-2-amino-6-(cyanomethyl)-N-(4-(pyrrolidin-3-yloxy)pyridin-3-yl)pyrazolo[1,5-a]pyrimidine-3-carboxamide]",++ (Cisplatin sensitization value>0.02 μM but <0.2 μM)
8,"Nc1nn2cc(Cl)cnc2c1C(=O)Nc1cncc(F)c1N1CCC(C(=O)N2CCN3CCC2CC3)CC1 [I-G-87, N-(4-(4-(1,4-diazabicyclo[3.2.2]nonane-4-carbonyl)piperidin-1-yl)-5-fluoropyridin-3-yl)-2-amino-6-chloropyrazolo[1,5-a]pyrimidine-3-carboxamide]",+++ (Cisplatin sensitization value of <0.02 μM)
9,"Nc1nn2cc(F)cnc2c1C(=O)Nc1cnccc1-c1cccnc1Cl [I-C-37, 2-amino-N-(2-chloro-[3,4′-bipyridin]-3′-yl)-6-fluoropyrazolo[1,5-a]pyrimidine-3-carboxamide]",+++ (Cisplatin sensitization value of <0.02 μM)
10,"Cc1ccncc1NC(=O)c1c(N)nn2cc(Cl)cnc12 [I-C-2, 2-amino-6-chloro-N-(4-methylpyridin-3-yl)pyrazolo[1,5-a]pyrimidine-3-carboxamide]",++ (Cisplatin sensitization value>0.02 μM but <0.2 μM)
11,"CN(C)CCOCCOc1ccncc1NC(=O)c1c(N)nn2cc(Cl)cnc12 [I-O-47, 2-amino-6-chloro-N-(4-(2-(2-(dimethylamino)ethoxy)ethoxy)pyridin-3-yl)pyrazolo[1,5-a]pyrimidine-3-carboxamide]",+ (Cisplatin sensitization value>0.2 μM but <5 μM)
12,"Nc1nn2cc(F)cnc2c1C(=O)Nc1cncc(F)c1N1CCN2C(=O)CC[C@@H]2C1 [I-N-186, (R)-2-amino-6-fluoro-N-(5-fluoro-4-(6-oxohexahydropyrrolo[1,2-a]pyrazin-2(1H)-yl)pyridin-3-yl)pyrazolo[1,5-a]pyrimidine-3-carboxamide]",+++ (Cisplatin sensitization value of <0.02 μM)
13,"Nc1nn2cc(F)cnc2c1C(=O)Nc1cnccc1-c1ccc(C(=O)N2CCN(C3COC3)CC2)cc1F [I-C-51, 2-amino-6-fluoro-N-(4-(2-fluoro-4-(4-(oxetan-3-yl)piperazine-1-carbonyl)phenyl)pyridin-3-yl)pyrazolo[1,5-a]pyrimidine-3-carboxamide]",++ (Cisplatin sensitization value>0.02 μM but <0.2 μM)
14,"N#C[C@@H]1CCN(c2c(Cl)cncc2NC(=O)c2c(N)nn3cc(F)cnc23)C1 [I-N-285, (R)-2-amino-N-(5-chloro-4-(3-cyanopyrrolidin-1-yl)pyridin-3-yl)-6-fluoropyrazolo[1,5-a]pyrimidine-3-carboxamide]",++ (Cisplatin sensitization value>0.02 μM but <0.2 μM)
15,"CN1CCN(C(=O)C2CCN(c3c(Cl)cncc3NC(=O)c3c(N)nn4cc(F)cnc34)CC2)CC1 [I-G-3, 2-amino-N-(5-chloro-4-(4-(4-methylpiperazine-1-carbonyl)piperidin-1-yl)pyridin-3-yl)-6-fluoropyrazolo[1,5-a]pyrimidine-3-carboxamide]",+++ (Cisplatin sensitization value of <0.02 μM)
16,"Nc1nn2cc(F)cnc2c1C(=O)Nc1cncc(F)c1N1CCC(C(=O)O)CC1 [I-N-92, 1-(3-(2-amino-6-fluoropyrazolo[1,5-a]pyrimidine-3-carboxamido)-5-fluoropyridin-4-yl)piperidine-4-carboxylic acid]",+ (Cisplatin sensitization value>0.2 μM but <5 μM)
17,"N#CCc1cnc2c(C(=O)Nc3cnccc3N3CCCC3)c(N)nn2c1 [I-N-77, 2-amino-6-(cyanomethyl)-N-(4-(pyrrolidin-1-yl)pyridin-3-yl)pyrazolo[1,5-a]pyrimidine-3-carboxamide]",+ (Cisplatin sensitization value>0.2 μM but <5 μM)
18,"Nc1nn2cc(F)cnc2c1C(=O)Nc1cncc(F)c1N1CCN(C(=O)C23CCN(CC2)CC3)CC1 [I-N-134, 2-amino-6-fluoro-N-(5-fluoro-4-(4-(quinuclidine-4-carbonyl)piperazin-1-yl)pyridin-3-yl)pyrazolo[1,5-a]pyrimidine-3-carboxamide]",+ (Cisplatin sensitization value>0.2 μM but <5 μM)
19,"Nc1nn2cc(F)cnc2c1C(=O)Nc1cnccc1OC1CCC(C(=O)O)CC1 (centres unmarked) [I-O-8, 4-((3-(2-amino-6-fluoropyrazolo[1,5-a]pyrimidine-3-carboxamido)pyridin-4-yl)oxy)cyclohexanecarboxylic acid]",+ (Cisplatin sensitization value>0.2 μM but <5 μM)
20,"COc1cncc(NC(=O)c2c(N)nn3cc(F)cnc23)c1C1CC1 [I-C-84, 2-amino-N-(4-cyclopropyl-5-methoxypyridin-3-yl)-6-fluoropyrazolo[1,5-a]pyrimidine-3-carboxamide]",++ (Cisplatin sensitization value>0.02 μM but <0.2 μM)
21,"Nc1nn2cc(F)cnc2c1C(=O)Nc1cncc(F)c1N1CCN([C@H]2CCOC2)CC1 [I-N-125, (S)-2-amino-6-fluoro-N-(5-fluoro-4-(4-(tetrahydrofuran-3-yl)piperazin-1-yl)pyridin-3-yl)pyrazolo[1,5-a]pyrimidine-3-carboxamide]",+++ (Cisplatin sensitization value of <0.02 μM)
22,"Nc1nn2cc(Cl)cnc2c1C(=O)Nc1cnccc1N1CCN(C2CC2)CC1 [I-N-64, 2-amino-6-chloro-N-(4-(4-cyclopropylpiperazin-1-yl)pyridin-3-yl)pyrazolo[1,5-a]pyrimidine-3-carboxamide]",+++ (Cisplatin sensitization value of <0.02 μM)
23,"Nc1nn2cc(Cl)cnc2c1C(=O)Nc1cnccc1N1CCn2cncc2C1 [I-N-75, 2-amino-6-chloro-N-(4-(5,6-dihydroimidazo[1,5-a]pyrazin-7(8H)-yl)pyridin-3-yl)pyrazolo[1,5-a]pyrimidine-3-carboxamide]",+++ (Cisplatin sensitization value of <0.02 μM)
24,"CN1CCN(C(=O)c2ccc(-c3c(F)cncc3NC(=O)c3c(N)nn4cc(F)cnc34)cc2)CC1 [I-C-43, 2-amino-6-fluoro-N-(5-fluoro-4-(4-(4-methylpiperazine-1-carbonyl)phenyl)pyridin-3-yl)pyrazolo[1,5-a]pyrimidine-3-carboxamide]",+++ (Cisplatin sensitization value of <0.02 μM)
25,"CC(C)(C#N)c1cnc2c(C(=O)Nc3cnccc3N3CCN(C4COC4)CC3)c(N)nn2c1 [I-N-142, 2-amino-6-(2-cyanopropan-2-yl)-N-(4-(4-(oxetan-3-yl)piperazin-1-yl)pyridin-3-yl)pyrazolo[1,5-a]pyrimidine-3-carboxamide]",++ (Cisplatin sensitization value>0.02 μM but <0.2 μM)
26,"N#CC1CN(C(=O)C2CCN(c3ccncc3NC(=O)c3c(N)nn4cc(F)cnc34)CC2)C1 [I-G-81, 2-amino-N-(4-(4-(3-cyanoazetidine-1-carbonyl)piperidin-1-yl)pyridin-3-yl)-6-fluoropyrazolo[1,5-a]pyrimidine-3-carboxamide]",+++ (Cisplatin sensitization value of <0.02 μM)
27,"CS(=O)(=O)C1CN(C(=O)C2CCN(c3ccncc3NC(=O)c3c(N)nn4cc(F)cnc34)CC2)C1 [I-G-89, 2-amino-6-fluoro-N-(4-(4-(3-(methylsulfonyl)azetidine-1-carbonyl)piperidin-1-yl)pyridin-3-yl)pyrazolo[1,5-a]pyrimidine-3-carboxamide]",+ (Cisplatin sensitization value>0.2 μM but <5 μM)
28,"CN1CC[C@@H](OC2CCN(c3c(F)cncc3NC(=O)c3c(N)nn4cc(F)cnc34)CC2)C1 [I-N-132, (R)-2-amino-6-fluoro-N-(5-fluoro-4-(4-((1-methylpyrrolidin-3-yl)oxy)piperidin-1-yl)pyridin-3-yl)pyrazolo[1,5-a]pyrimidine-3-carboxamide]",+++ (Cisplatin sensitization value of <0.02 μM)
29,"CN1CCN(CC2CCN(c3c(F)cncc3NC(=O)c3c(N)nn4cc(F)cnc34)CC2)CC1 [I-N-150, 2-amino-6-fluoro-N-(5-fluoro-4-(4-((4-methylpiperazin-1-yl)methyl)piperidin-1-yl)pyridin-3-yl)pyrazolo[1,5-a]pyrimidine-3-carboxamide]",+++ (Cisplatin sensitization value of <0.02 μM)
